Test results reported in the supplement of paper PMC5770543.
± gives the standard deviation.

Tests used:
[1] = test system: Plasmodium falciparum 3D7; assay: EC50 growth inhibition (60 h, SYBR Green); settings: stage: ring-stage start
[2] = test system: Toxoplasma gondii RH tachyzoites; assay: % growth inhibition vs DMSO (48 h luciferase); higher = more inhibition; settings: 10 µM
[3] = test system: Plasmodium falciparum 3D7; assay: % inhibition of schizont-to-ring transition vs DMSO; higher = more inhibition
Method in brief: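 Schizont-to-ring transition inhibition compares new ring formation with that in vehicle controls. Synchronised P. falciparum schizonts (about 40–42 hours post-invasion, 1% parasitemia, 2.5% hematocrit, AlbuMAX-supplemented RPMI) were exposed to 1, 3 or 10 µM compound, after which rings were counted by Hoechst 33342 flow cytometry across three experiments.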

[4] = test system: Toxoplasma gondii RH tachyzoites; assay: plaque count per well; higher = less inhibition; extreme values may be limits of the assay; settings: 10 µM; 8-10 days
Experimental: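 T. gondii RH tachyzoites expressing firefly luciferase were grown in HFF monolayers for 48 h with compound. % growth inhibition at 10 µM and EC50 (2-fold dilutions from 10 µM) were read by luminescence relative to 1% DMSO; EC50 listed as 10 (not determined, <80% inhibition) is left out. Plaque assays: 50 tachyzoites per well with 10 µM compound for 8-10 days, giving plaque count and area by crystal violet/ImageJ. Egress: median time to egress after 1 µM A23187 ionophore following 24 h of 10 µM compound (DMSO ~1.8 min; >10 = no egress within 10 min).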

[5] = target: Toxoplasma gondii RH tachyzoites; assay: EC50 growth inhibition (48 h luciferase)
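Throughout, for % growth inhibition vs DMSO (48 h luciferase): tested in triplicate wells of 96-well plates on confluent HFF monolayers, with 1% DMSO wells as negative control in four replicates.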

| Compound | EC50 growth inhibition [1] [nM] | % growth inhibition [2] [%] | % inhibition of schizont-to-ring transition ([3]; 1 µM) [%] | % inhibition of schizont-to-ring transition ([3]; 3 µM) [%] | % inhibition of schizont-to-ring transition ([3]; 10 µM) [%] | plaque count per well [4] | EC50 growth inhibition [5] [nM] |
| --- | --- | --- | --- | --- | --- | --- | --- |
| Cc1ccc(Nc2nc(NCCO)c3ccccc3n2)cc1C | 194 | < 0 | 54.1 | 66.8 | 69.1 | 0 | – |
| COc1ccccc1CNC(=O)C1c2ccccc2C(=O)N(CC(C)C)C1c1cccs1 (centres undefined) | 926 | < 0 | 34.5 | 45 | 68.1 | 24 | – |
| Cn1c(=O)c2cc(C(=O)NCCCN3CCCCCC3)sc2c2ccccc21 | 833 | 5.71 ± 9.9 | 42.6 | 49.5 | 53.2 | 25 | – |
| O=C(Nc1ccc(Cl)cc1)N1CCN(c2ccc3nncn3n2)CC1 | 6370 | < 0 | 13.1 | 24.8 | 54.3 | 22 | – |
| CCCCc1c(C)nc2c(OC)cccc2c1O | 2640 | 9.6 ± 15 | 41.9 | 45.3 | 49.4 | 0 | – |
| O=C(Nc1cccc(C2=NCCN2)c1)Nc1cccc(C2=NCCN2)c1 | 1840 | 7.82 ± 3.2 | < 0 | 1.31 | 32.2 | 38 | – |
| Clc1ccc2[nH]c3c(NCCCN4CCOCC4)ncnc3c2c1 | 189 | < 0 | 40.9 | 53.1 | 56.3 | 23 | – |
| COc1cccc(C(=O)NC(c2ccc(C)cc2)c2cc(Cl)c3cccnc3c2O)c1 (centres undefined) | 7640 | < 0 | 30.4 | 42.1 | 49.9 | 0 | – |
| CCOc1cc2c(cc1OCC)C(c1cc(C)c(O)c(C)c1)NCC2 (centres undefined) | 792 | 14.9 ± 14 | 6.53 | 17.1 | 43.5 | 31 | – |
| CCOc1ccc(CN2CCN(CC(O)COc3ccc(OCC(O)CN4CCN(Cc5ccc(OCC)cc5)CC4)cc3)CC2)cc1 (centres undefined) | 3120 | 4.15 ± 5.8 | < 0 | 14.6 | 59.9 | 0 | – |
| COc1ccc2nc(C)cc(Nc3cccc(O)c3)c2c1 | 845 | 19.7 ± 6.3 | 42.3 | 59.4 | 64 | 0 | – |
| COc1ccc(NC(=O)C2c3ccccc3C(=O)N(CC(C)C)C2c2cccs2)cc1 (centres undefined) | 46.9 | < 0 | 78.1 | 78 | 76.6 | 27 | – |
| Cc1ccc(S(=O)(=O)c2c(COC(=O)c3cccc(C)c3)c(-c3ccccc3)nn2C)cc1 | – | 99.44 ± 0.48 | < 0 | 1.67 | 32.1 | – | 2060 |
| CCn1c(SCC(=O)Nc2cc(C(F)(F)F)ccc2Cl)nc2ccccc2c1=O | 6480 | < 0 | 22.9 | 30.1 | 43.7 | 26 | – |
| Cc1ccc(-c2cc(C(=O)Nc3ccc(S(=O)(=O)N4CCCCC4)cc3)[nH]n2)c(O)c1 | 9180 | < 0 | 28.1 | 58.9 | 67.5 | 18 | – |
| Cc1cc(C)c2nc(N3CCC(C(=O)NCCCN4CCC(N5CCCCC5)CC4)CC3)sc2c1 | 1080 | < 0 | 18.8 | 46.7 | 59.8 | 16 | – |
| CCn1c2c(c(=N)c3c1CCC3)CCCC2 | 2640 | < 0 | 43.8 | 47.9 | 56.4 | 34 | – |
| COc1nc(Nc2ccc(C(C)C)cc2)nc(OC)n1 | 2540 | < 0 | 20.3 | 32.6 | 54.9 | 30 | – |
| O=C(Nc1ccc(Br)cc1)Nc1cccc(Cl)c1 | – | 96.13 ± 0.57 | 24.1 | 22.5 | 58.1 | – | 3770 |
| Cc1cccc(N2C(=O)C3C(C2=O)C2(c4ccccc4)C(=O)C3(c3ccccc3)C(c3ccc4c(c3)OCO4)=C2c2ccc3c(c2)OCO3)c1 (centres undefined) | 1020 | < 0 | < 0 | < 0 | 17.3 | 20 | – |
| O=C(CSc1ccc2nnc(-c3cccc(F)c3)n2n1)Nc1ccc2c(c1)OCO2 | 6570 | 15.9 ± 9.8 | 32 | 49.9 | 72.7 | 25 | – |
| CCOc1ccc(N2C(N)=NC(N)=NC2(C)C)cc1 | 9760 | < 0 | 5.22 | 7.7 | 16 | 28 | – |
| COc1ccc(-c2cc3c(nn2)-c2ccccc2C3=O)cc1 | 781 | < 0 | 14.8 | 34.7 | 50.6 | 29 | – |
| COc1cccc(Nc2nc(N)c3ccccc3n2)c1 | 1320 | < 0 | < 0 | 12.3 | 41.7 | 0 | – |
| CC(C)c1ccc(CNCC(O)c2ccccc2)cc1 (centres undefined) | 2650 | 10.5 ± 1.3 | 7.33 | 20.6 | 59.6 | 0 | – |
| O=C(Nc1ccc(-c2nc3ccccc3[nH]2)cc1)c1ccc(Cl)c(Cl)c1 | 7300 | 7.15 ± 8.1 | 6.82 | 10.1 | 44.2 | 23 | – |
